Measured values taken from ChEMBL document CHEMBL1201862, “PubChem BioAssay data set” (2004).
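1) Cells in 96-well plates. 2) Compound, 48 h, 5 concentrations. 3) Linear interpolation between surrounding doses. 4) Unreached endpoint = highest concentration. GI50 is the concentration that inhibits growth by half.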 Activity calls are given as the source filed them. Rule as the data show it: active = GI50 up to about 1.1 µM and inactive = higher. Where a SMILES comes first, the peptide text is derived from it. The star is where a group is joined. OSu = O=C1CCC(=O)N1O*; OBn = c1ccc(CO*)cc1; Bn = c1ccc(C*)cc1

Assays:
Assay in all cases: NCI-60 cell line screen, 48 h
[1] = test system: PC-3
[2] = test system: NCI-H226
[3] = test system: 786-0
[4] = test system: M14
[5] = test system: MCF7
[6] = test system: A498
[7] = test system: RXF 393
[8] = test system: NCI-H522
[9] = test system: TK-10
[10] = test system: HOP-92
[11] = test system: NCI/ADR-RES
[12] = test system: DU-145
[13] = test system: ACHN
[14] = test system: DLD-1
[15] = test system: HOP-18
[16] = test system: KM-20L2
[17] = test system: SNB-78
[18] = test system: DMS-114
[19] = test system: M19-MEL
[20] = test system: DMS-273

| SMILES | GI50 [1] | GI50 [2] | GI50 [3] | GI50 [4] | GI50 [5] | GI50 [6] | GI50 [7] | GI50 [8] | GI50 [9] | GI50 [10] | GI50 [11] | GI50 [12] | GI50 [13] | GI50 [14] | GI50 [15] | GI50 [16] | GI50 [17] | GI50 [18] | GI50 [19] | GI50 [20] |
| --- | --- | --- | --- | --- | --- | --- | --- | --- | --- | --- | --- | --- | --- | --- | --- | --- | --- | --- | --- | --- |
| O=C1c2ccccc2-c2ccc(N(Cc3ccc(Br)cc3)Cc3ccc(Br)cc3)cc21 | > 100 µM (inactive) | > 100 µM (inactive) | > 100 µM (inactive) | > 100 µM (inactive) | > 100 µM (inactive) | > 100 µM (inactive) | > 100 µM (inactive) | > 100 µM (inactive) | > 100 µM (inactive) | > 100 µM (inactive) | > 100 µM (inactive) | > 100 µM (inactive) | > 100 µM (inactive) | – | – | – | – | – | – | – |
| CN1CCc2c1nc(-c1ccc([N+](=O)[O-])cc1)c1c2N(C)CC1 | – | – | > 100 µM (inactive) | 77.6 µM (inactive) | – | 43.2 µM (inactive) | 35.2 µM (inactive) | – | > 100 µM (inactive) | 9.4 µM (inactive) | – | – | > 100 µM (inactive) | 46.3 µM (inactive) | 0.16 µM (active) | > 100 µM (inactive) | > 100 µM (inactive) | 32 µM (inactive) | > 100 µM (inactive) | – |
| Oc1ccc(Cl)cc1C1=Nn2c(COc3ccc4c(c3)CCCC4)nnc2SC1 | 10.6 µM (inactive) | – | – | 14.2 µM (inactive) | 14.7 µM (inactive) | 1.49 µM (inactive) | 16.5 µM (inactive) | 6.84 µM (inactive) | 4.72 µM (inactive) | 3.04 µM (inactive) | 14.8 µM (inactive) | 18.3 µM (inactive) | 15.4 µM (inactive) | – | – | – | – | – | – | – |
| C/C=C1\C=C(OC)CN(CCc2c[nH]c3ccccc23)C1 | – | 27.2 µM (inactive) | 59 µM (inactive) | 27.7 µM (inactive) | – | 44 µM (inactive) | – | 46 µM (inactive) | > 100 µM (inactive) | – | – | – | > 100 µM (inactive) | > 100 µM (inactive) | > 10 µM (inactive) | 37.6 µM (inactive) | – | 43.4 µM (inactive) | 79.8 µM (inactive) | 49.7 µM (inactive) |
| O=C(O)c1ccccc1/C=N\N(CCO)C1=NCCN1 | > 100 µM (inactive) | > 100 µM (inactive) | > 100 µM (inactive) | > 100 µM (inactive) | > 100 µM (inactive) | – | > 100 µM (inactive) | – | > 100 µM (inactive) | > 100 µM (inactive) | – | > 100 µM (inactive) | > 100 µM (inactive) | – | – | – | – | – | – | – |
| CCOC(=O)C1C(c2cc(OC)c(O)c(OC)c2)c2cc3c(cc2OC1(C)O)OCO3 (stereo not drawn) | – | – | – | 74.3 µM (inactive) | – | – | – | – | > 100 µM (inactive) | 11.5 µM (inactive) | – | – | 55.2 µM (inactive) | 42.6 µM (inactive) | > 100 µM (inactive) | 64.9 µM (inactive) | 81.7 µM (inactive) | – | 66.4 µM (inactive) | 36.9 µM (inactive) |
| COc1ccc(C2C(=O)C(Cl)N2Nc2nc(C)cc(O)n2)cc1OC (stereo not drawn) | – | – | – | 25.8 µM (inactive) | – | – | 25.2 µM (inactive) | – | 43.6 µM (inactive) | 25.5 µM (inactive) | – | – | 19.4 µM (inactive) | – | 6.41 µM (inactive) | 37 µM (inactive) | 21.1 µM (inactive) | – | 42.3 µM (inactive) | 22.1 µM (inactive) |
| CC(=N/NC(=S)N1CCCCCC1)/C(C)=N\NC(=S)N1CCCCCC1 | 5.86 µM (inactive) | 3.42 µM (inactive) | 4.54 µM (inactive) | 5.25 µM (inactive) | 4.7 µM (inactive) | 1.78 µM (inactive) | 3.77 µM (inactive) | 4.14 µM (inactive) | 4.34 µM (inactive) | 1.32 µM (inactive) | 5.25 µM (inactive) | 3.21 µM (inactive) | 3.38 µM (inactive) | – | – | – | – | – | – | – |
| O=c1ccn(C2OC(CN(O)CCC3C(O)C(CO)OC3n3ccc(=O)[nH]c3=O)C(O)C2O)c(=O)[nH]1 (stereo not drawn) | > 100 µM (inactive) | > 100 µM (inactive) | > 100 µM (inactive) | > 100 µM (inactive) | > 100 µM (inactive) | > 100 µM (inactive) | – | – | > 100 µM (inactive) | > 100 µM (inactive) | > 100 µM (inactive) | > 100 µM (inactive) | > 100 µM (inactive) | – | – | – | – | – | – | – |
| CCOC(=O)c1c(NC(=S)NCc2ccccc2)sc2c1CCN(C)C2 | 35.4 µM (inactive) | > 100 µM (inactive) | – | > 100 µM (inactive) | 52.6 µM (inactive) | 59.6 µM (inactive) | – | – | 64.9 µM (inactive) | – | > 100 µM (inactive) | 64.1 µM (inactive) | 89.5 µM (inactive) | – | – | – | – | – | – | – |
| [N-]=[N+]=NC1(c2ccccc2)C(=O)Nc2ccccc2C1=O (stereo not drawn) | 25.1 µM (inactive) | – | 68.2 µM (inactive) | 20.4 µM (inactive) | 35 µM (inactive) | 0.706 µM (active) | 25.5 µM (inactive) | – | 49.5 µM (inactive) | 26.1 µM (inactive) | 51.2 µM (inactive) | 75.5 µM (inactive) | 34.6 µM (inactive) | – | – | – | – | – | – | – |
| COc1ccc2c(c1)C/C(=C\c1ccc(O)c(OC)c1)C2=O | > 100 µM (inactive) | > 100 µM (inactive) | > 100 µM (inactive) | > 100 µM (inactive) | > 100 µM (inactive) | > 100 µM (inactive) | – | – | > 100 µM (inactive) | – | > 100 µM (inactive) | – | > 100 µM (inactive) | – | – | – | – | – | – | – |
| NC1CC(=O)c2sc(I)cc21 (stereo not drawn) | > 100 µM (inactive) | – | > 100 µM (inactive) | > 100 µM (inactive) | > 100 µM (inactive) | > 100 µM (inactive) | > 100 µM (inactive) | – | > 100 µM (inactive) | – | > 100 µM (inactive) | > 100 µM (inactive) | > 100 µM (inactive) | – | – | – | – | – | – | – |
| C=C1C(=O)O[C@H]2C/C(C)=C/CC[C@@]3(C)O[C@](C)(CC[C@@H]3I)[C@@H](I)C[C@@H]12 | 4.91 µM (inactive) | 0.869 µM (active) | 4.68 µM (inactive) | 10.9 µM (inactive) | 2.25 µM (inactive) | 9.68 µM (inactive) | 3.97 µM (inactive) | 3.05 µM (inactive) | 6.03 µM (inactive) | 5.83 µM (inactive) | 1.44 µM (inactive) | 5.04 µM (inactive) | 7.03 µM (inactive) | – | – | – | – | – | – | – |
| CN1C(CC(O)c2ccccc2)CCCC1CC(O)(c1ccccc1)c1ccccc1 (stereo not drawn) | 18.2 µM (inactive) | 21.1 µM (inactive) | 15.7 µM (inactive) | 16.8 µM (inactive) | 20.9 µM (inactive) | – | 14.9 µM (inactive) | 19.9 µM (inactive) | 18.5 µM (inactive) | – | 16.9 µM (inactive) | 20.8 µM (inactive) | 19.7 µM (inactive) | – | – | – | – | – | – | – |
| O=C1OC(c2ccccc2)=N/C1=C\c1cccnc1 | > 100 µM (inactive) | > 100 µM (inactive) | – | > 100 µM (inactive) | > 100 µM (inactive) | – | > 100 µM (inactive) | > 100 µM (inactive) | > 100 µM (inactive) | > 100 µM (inactive) | > 100 µM (inactive) | – | > 100 µM (inactive) | – | – | – | – | – | – | – |
| CC(C)CC(NC(=O)C(N)CCC(=O)OCc1ccccc1)C(=O)NC(COCc1ccccc1)C(=O)NC(Cc1ccccc1)C(=O)ON1C(=O)CCC1=O (stereo not drawn) (H-E(OBn)LS(Bn)F-OSu; configuration not given here) | 24.5 µM (inactive) | – | 39.1 µM (inactive) | 33.4 µM (inactive) | 27.4 µM (inactive) | – | 21.8 µM (inactive) | 18.5 µM (inactive) | 26.7 µM (inactive) | 15 µM (inactive) | 28.5 µM (inactive) | 27.7 µM (inactive) | 31.6 µM (inactive) | – | – | – | – | – | – | – |
